Patent publication US10206937B2, “Boronic acid derivatives and therapeutic uses thereof” (Qpex Biopharma, Inc., priority 2014, dated 2019)

Experiments:
NDM-1 [1] = molecular target: T1, NDM-1 (Klebsiella pneumoniae, UniProt C7C422); assay: biochemical; conditions: cleavage of imipenem (100 uM) by NDM-1; read-out: Ki, Imipenem
[2] = molecular target: T2, purified class A, C and D enzymes (UniProt Q9F663); type: biochemical; conditions: read-out: Ki (KPC-2, NCF); purified KPC-2; nitrocefin reporter substrate
T2 construct: rows headed: Ki (KPC-2, NCF); other: purified KPC-2; nitrocefin reporter substrate

[3] = molecular target: T3, purified class A, C and D enzymes (UniProt Q6XEC0); type: biochemical; conditions: read-out: Ki (OXA-48, NCF); purified OXA-48; nitrocefin reporter substrate
T3 construct: rows headed: Ki (OXA-48, NCF); other: purified OXA-48; nitrocefin reporter substrate

[4] = molecular target: purified class A, C and D enzymes (Enterobacter cloacae, UniProt P05364); type: biochemical; conditions: purified P99/AmpC of ECL; nitrocefin reporter substrate
Sequence of purified class A, C and D enzymes (Enterobacter cloacae, UniProt P05364) (P05364 21-381): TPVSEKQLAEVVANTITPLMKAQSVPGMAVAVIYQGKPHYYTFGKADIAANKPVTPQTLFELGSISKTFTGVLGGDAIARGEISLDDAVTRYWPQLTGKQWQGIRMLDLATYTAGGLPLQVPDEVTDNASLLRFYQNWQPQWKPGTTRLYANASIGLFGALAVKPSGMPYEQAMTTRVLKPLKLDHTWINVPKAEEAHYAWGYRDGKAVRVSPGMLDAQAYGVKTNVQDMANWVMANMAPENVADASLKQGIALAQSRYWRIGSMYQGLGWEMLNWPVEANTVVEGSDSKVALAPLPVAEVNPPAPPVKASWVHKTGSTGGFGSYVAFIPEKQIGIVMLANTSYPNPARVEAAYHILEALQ

[5] = molecular target: T4, purified class A, C and D enzymes (UniProt P0AD64, L31Q/G234S/E235K, species not given); type: biochemical; conditions: read-out: Ki (SHV-12, NCF); purified SHV-12; nitrocefin reporter substrate
T4 construct: Ki (SHV-12, NCF); other: purified SHV-12; nitrocefin reporter substrate
T4 sequence (P0AD64 1-286 L31Q/G234S/E235K): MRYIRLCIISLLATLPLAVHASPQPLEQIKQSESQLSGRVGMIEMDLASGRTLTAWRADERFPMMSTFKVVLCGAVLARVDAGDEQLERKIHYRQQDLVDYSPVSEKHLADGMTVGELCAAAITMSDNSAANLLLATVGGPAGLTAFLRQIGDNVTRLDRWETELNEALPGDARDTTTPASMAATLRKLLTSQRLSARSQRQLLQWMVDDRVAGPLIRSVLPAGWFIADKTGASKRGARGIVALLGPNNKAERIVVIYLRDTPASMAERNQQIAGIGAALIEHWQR

[6] = molecular target: purified class A, C and D enzymes (Escherichia coli, UniProt Q9L5C7); type: biochemical; conditions: purified CTX-M-14; nitrocefin reporter substrate
Sequence of purified class A, C and D enzymes (Escherichia coli, UniProt Q9L5C7) (Q9L5C7 entry or part of it): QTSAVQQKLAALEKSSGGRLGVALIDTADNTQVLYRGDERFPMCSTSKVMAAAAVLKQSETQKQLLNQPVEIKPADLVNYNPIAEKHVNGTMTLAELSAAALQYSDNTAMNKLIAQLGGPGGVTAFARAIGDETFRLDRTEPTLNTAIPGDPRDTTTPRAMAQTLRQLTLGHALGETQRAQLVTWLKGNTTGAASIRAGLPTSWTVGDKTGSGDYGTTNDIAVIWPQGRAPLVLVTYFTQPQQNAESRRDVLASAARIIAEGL

NDM-1 [7] = molecular target: T1, NDM-1; assay: Inhibition of purified class B carbapenemase NDM-1 (Ki, imipenem substrate); type: biochemical; conditions: NDM-1, substrate imipenem; read-out: Ki NDM-1, Imipenem
VIM-1 = molecular target: T5, VIM-1 (Pseudomonas aeruginosa, UniProt A0A0F7KYQ8); assay: biochemical; conditions: cleavage of nitrocefin (200 uM) by VIM-1 supernatant
T5 construct: made in house; host or cells: ECM6711 strain carrying pUCP24-VIM-1 plasmid; culture supernatant used unpurified

T1 sequence (C7C422 29-270, looked up, species assumed): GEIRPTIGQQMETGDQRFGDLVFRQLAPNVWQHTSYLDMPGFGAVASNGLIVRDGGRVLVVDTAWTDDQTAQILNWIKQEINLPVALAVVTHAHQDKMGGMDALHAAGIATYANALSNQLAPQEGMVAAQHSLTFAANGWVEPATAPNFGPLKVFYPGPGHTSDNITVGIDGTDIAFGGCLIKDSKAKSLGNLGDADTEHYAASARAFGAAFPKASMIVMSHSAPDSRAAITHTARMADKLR

SMILES | Ki (NDM-1 [1]) | Ki [2] | Ki [3] | Ki (P99/AmpC of ECL, NCF) [4] | Ki [5] | Ki (CTX-M-14, NCF) [6] | Ki (NDM-1 [7]) | IC50 (VIM-1)
COc1ccc2c(c1C(=O)O)OB(O)[C@@H](Sc1nnc(C(F)(F)F)n1N)C2 [Compound 64, (3R)-3-[[4-amino-5-(trifluoromethyl)-1,2,4-triazol-3-yl]sulfanyl]-2-hydroxy-7-methoxy-3,4-dihydro-1,2-benzoxaborinine-8-carboxylic acid] | > 100 nM | 100 to 1000 nM | < 100 nM | Z (Greater than 1 μM) | < 100 nM | X (Less than 0.1 μM) | > 100 nM | < 1000 nM
COc1ccc2c(c1C(=O)O)OB(O)[C@@H](SC1CN(C3=NCCS3)C1)C2 [Compound 65, (3R)-3-[1-(4,5-dihydrothiazol-2-yl)azetidin-3-yl]sulfanyl-2-hydroxy-7-methoxy-3,4-dihydro-1,2-benzoxaborinine-8-carboxylic acid] | > 100 nM | < 100 nM | < 100 nM | Z (Greater than 1 μM) | < 100 nM | X (Less than 0.1 μM) | > 100 nM | ≥ 1000 nM
COc1ccc2c(c1C(=O)O)OB(O)[C@@H](Sc1nnc(CN)n1N)C2 [Compound 66, (3R)-3-[[4-amino-5-(aminomethyl)-1,2,4-triazol-3-yl]sulfanyl]-2-hydroxy-7-methoxy-3,4-dihydro-1,2-benzoxaborinine-8-carboxylic acid] | 10 to 100 nM | 100 to 1000 nM | 100 to 1000 nM | Z (Greater than 1 μM) | < 100 nM | X (Less than 0.1 μM) | 10 to 100 nM | < 1000 nM
COc1ccc2c(c1C(=O)O)OB(O)[C@@H](Sc1nnc(SCC(=N)N)s1)C2 [Compound 67, (3R)-3-[[5-(2-amino-2-imino-ethyl)sulfanyl-1,3,4-thiadiazol-2-yl]sulfanyl]-2-hydroxy-7-methoxy-3,4-dihydro-1,2-benzoxaborinine-8-carboxylic acid] | < 10 nM | 100 to 1000 nM | < 100 nM | Y (0.1 μM to 1 μM) | < 100 nM | X (Less than 0.1 μM) | < 10 nM | < 1000 nM
COc1ccc2c(c1C(=O)O)OB(O)[C@@H](Sc1nnc(SCCN3CCNCC3)s1)C2 [Compound 68, (3R)-2-hydroxy-7-methoxy-3-[[5-(2-piperazin-1-ylethylsulfanyl)-1,3,4-thiadiazol-2-yl]sulfanyl]-3,4-dihydro-1,2-benzoxaborinine-8-carboxylic acid] | > 100 nM | 100 to 1000 nM | < 100 nM | Y (0.1 μM to 1 μM) | < 100 nM | X (Less than 0.1 μM) | > 100 nM | < 1000 nM
COc1ccc2c(c1C(=O)O)OB(O)[C@@H](Sc1cncs1)C2 [Compound 69, (3R)-2-hydroxy-7-methoxy-3-thiazol-5-ylsulfanyl-3,4-dihydro-1,2-benzoxaborinine-8-carboxylic acid] | > 100 nM | < 100 nM | < 100 nM | Y (0.1 μM to 1 μM) | < 100 nM | X (Less than 0.1 μM) | > 100 nM | < 1000 nM
COc1ccc2c(c1C(=O)O)OB(O)[C@@H](Sc1nnc[nH]1)C2 [Compound 70, (3R)-2-hydroxy-7-methoxy-3-(4H-1,2,4-triazol-3-ylsulfanyl)-3,4-dihydro-1,2-benzoxaborinine-8-carboxylic acid] | 10 to 100 nM | 100 to 1000 nM | < 100 nM | Y (0.1 μM to 1 μM) | < 100 nM | X (Less than 0.1 μM) | 10 to 100 nM | < 1000 nM
COc1ccc2c(c1C(=O)O)OB(O)[C@@H](Sc1nnc(CN3CCNCC3)n1N)C2 [Compound 71, (3R)-3-[[4-amino-5-(piperazin-1-ylmethyl)-1,2,4-triazol-3-yl]sulfanyl]-2-hydroxy-7-methoxy-3,4-dihydro-1,2-benzoxaborinine-8-carboxylic acid] | 10 to 100 nM | 100 to 1000 nM | 100 to 1000 nM | Z (Greater than 1 μM) | < 100 nM | X (Less than 0.1 μM) | 10 to 100 nM | < 1000 nM
COc1ccc2c(c1C(=O)O)OB(O)[C@@H](SCCN1CCNCC1)C2 [Compound 72, (3R)-2-hydroxy-7-methoxy-3-(2-piperazin-1-ylethylsulfanyl)-3,4-dihydro-1,2-benzoxaborinine-8-carboxylic acid] | > 100 nM | < 100 nM | < 100 nM | Y (0.1 μM to 1 μM) | < 100 nM | X (Less than 0.1 μM) | > 100 nM | < 1000 nM
COc1ccc2c(c1C(=O)O)OB(O)[C@@H](Sc1nncn1CCCCN)C2 [Compound 73, (3R)-3-[[4-(4-aminobutyl)-1,2,4-triazol-3-yl]sulfanyl]-2-hydroxy-7-methoxy-3,4-dihydro-1,2-benzoxaborinine-8-carboxylic acid] | 10 to 100 nM | 100 to 1000 nM | < 100 nM | Z (Greater than 1 μM) | < 100 nM | X (Less than 0.1 μM) | 10 to 100 nM | < 1000 nM
COc1ccc2c(c1C(=O)O)OB(O)[C@@H](Sc1nc(N)ns1)C2 [Compound 74, (3R)-3-[(3-amino-1,2,4-thiadiazol-5-yl)sulfanyl]-2-hydroxy-7-methoxy-3,4-dihydro-1,2-benzoxaborinine-8-carboxylic acid] | > 100 nM | < 100 nM | < 100 nM | Y (0.1 μM to 1 μM) | < 100 nM | X (Less than 0.1 μM) | > 100 nM | < 1000 nM
COc1ccc2c(c1C(=O)O)OB(O)[C@@H](Sc1ncns1)C2 [Compound 75, (3R)-2-hydroxy-7-methoxy-3-(1,2,4-thiadiazol-5-ylsulfanyl)-3,4-dihydro-1,2-benzoxaborinine-8-carboxylic acid] | > 100 nM | < 100 nM | < 100 nM | Y (0.1 μM to 1 μM) | < 100 nM | X (Less than 0.1 μM) | > 100 nM | < 1000 nM
NCCOc1ccc2c(c1C(=O)O)OB(O)[C@@H](Sc1nnc(N)s1)C2 [Compound 79, (3R)-7-(2-aminoethoxy)-3-[(5-amino-1,3,4-thiadiazol-2-yl)sulfanyl]-2-hydroxy-3,4-dihydro-1,2-benzoxaborinine-8-carboxylic acid] | > 100 nM | > 1000 nM | < 100 nM | Y (0.1 μM to 1 μM) | < 100 nM | X (Less than 0.1 μM) | > 100 nM | ≥ 1000 nM
NC(=O)COc1ccc2c(c1C(=O)O)OB(O)[C@@H](Sc1nnc(N)s1)C2 [Compound 80, (3R)-7-(2-amino-2-oxo-ethoxy)-3-[(5-amino-1,3,4-thiadiazol-2-yl)sulfanyl]-2-hydroxy-3,4-dihydro-1,2-benzoxaborinine-8-carboxylic acid] | > 100 nM | 100 to 1000 nM | < 100 nM | Y (0.1 μM to 1 μM) | < 100 nM | X (Less than 0.1 μM) | > 100 nM | < 1000 nM
Nc1nnc(S[C@H]2Cc3ccc(OCC(=O)NC4CNC4)c(C(=O)O)c3OB2O)s1 [Compound 81, (3R)-3-[(5-amino-1,3,4-thiadiazol-2-yl)sulfanyl]-7-[2-(azetidin-3-ylamino)-2-oxo-ethoxy]-2-hydroxy-3,4-dihydro-1,2-benzoxaborinine-8-carboxylic acid] | > 100 nM | > 1000 nM | < 100 nM | Y (0.1 μM to 1 μM) | < 100 nM | X (Less than 0.1 μM) | > 100 nM | ≥ 1000 nM
COc1ccc2c(c1C(=O)O)OB(O)[C@@H](Sc1nc(N)n[nH]1)C2 [Compound 82, (3R)-3-[(3-amino-1H-1,2,4-triazol-5-yl)sulfanyl]-2-hydroxy-7-methoxy-3,4-dihydro-1,2-benzoxaborinine-8-carboxylic acid] | < 10 nM | 100 to 1000 nM | < 100 nM | Y (0.1 μM to 1 μM) | < 100 nM | X (Less than 0.1 μM) | < 10 nM | < 1000 nM
